Patent publication US10167262B2, “Herbicidal substituted 3-arylpyrazoles” (FMC CORPORATION, priority 2014, dated 2019)
Like-named read-outs stand apart in the source and are kept apart here.

Tests used:
Format in all cases: in vivo
[1] = tested on: galium (catchweed bedstraw, Galium aparine); experiment: Test C pre-/postemergence greenhouse test, plant response rating 0-100; conditions: Galium, post-emergence, Postemergence
How it was run: (§1)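 Plants were scored visually against controls 13–15 days after treatment on a 0–100 scale, 100 meaning complete control. Test chemicals, formulated in surfactant-containing non-phytotoxic solvent, went preemergence onto seeds in loam–sand blend or postemergence onto 1- to 4-leaf plants (2–18 cm) grown in peat-based mix.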

[2] = tested on: morningglory (Ipomoea coccinea); experiment: as above; conditions: Ipomoea, post-emergence, Postemergence
How it was run: as §1

[3] = tested on: wild oat (Avena fatua); experiment: Test C postemergence greenhouse test, plant response rating 0-100; conditions: Avena fatua, post-emergence
How it was run: (§2)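 Potted in peat/vermiculite mix; postemergence application at 1–4 leaves (2–18 cm); greenhouse 13–15 d; visual score 0–100 relative to untreated plants; dash = no test result.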

[4] = tested on: chickweed (common chickweed, Stellaria media); experiment: as above; conditions: Stellaria media, post-emergence
How it was run: as §2

[5] = tested on: kochia (Kochia scoparia); experiment: as above; conditions: Bassia scoparia, post-emergence
How it was run: as §2

[6] = tested on: wheat (Triticum aestivum); experiment: Test A pre-/postemergence greenhouse herbicide test, visual injury rating 0-100
How it was run: (§3)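 Ratings are visual, 0 to 100 relative to untreated plants, taken approximately 10 days post-treatment in the greenhouse. Both preemergence soil and postemergence foliar routes were used with surfactant-containing non-phytotoxic solvent formulations.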

[7] = tested on: large (Lg) crabgrass (Digitaria sanguinalis); experiment: as above; conditions: for pest or weed control at 500 g/ha: 500 g ai/ha
How it was run: as §3

[8] = tested on: pigweed (Amaranthus retroflexus); experiment: as above; conditions: for pest or weed control at 500 g/ha: 500 g ai/ha
How it was run: as §3

[9] = tested on: corn (Zea mays); experiment: as above; conditions: for plant injury at 500 g/ha: 500 g ai/ha
How it was run: as §3

[10] = tested on: morningglory (Ipomoea spp.); experiment: as above; conditions: for pest or weed control at 500 g/ha: 500 g ai/ha
How it was run: as §3

[11] = tested on: velvetleaf (Abutilon theophrasti); experiment: as above; conditions: for pest or weed control at 500 g/ha: 500 g ai/ha
How it was run: as §3

[12] = tested on: barnyardgrass (Echinochloa crus-galli); experiment: as above; conditions: for pest or weed control at 500 g/ha: 500 g ai/ha
How it was run: as §3

[13] = tested on: giant foxtail (Setaria faberii); experiment: as above; conditions: for pest or weed control at 500 g/ha: 500 g ai/ha
How it was run: as §3

CCCn1cc(C(=O)c2ccccc2)c(-c2cc(Cl)cc(Cl)c2)n1 [Compound 61, [3-(3,5-dichlorophenyl)-1-propyl-1H-pyrazol-4-yl]phenylmethanone]
pest or weed control at 31 g/ha ([1]; 31 g ai/ha, read-out: Plant response rating (0 to 100), Galium): 0%
pest or weed control at 62 g/ha ([1]; 62 g ai/ha, read-out: Plant response rating (0 to 100), Galium): 0%
pest or weed control at 125 g/ha ([1]; 125 g ai/ha, read-out: Plant response rating (0 to 100), Galium): 0%
pest or weed control at 250 g/ha ([1]; 250 g ai/ha, scale 0 to 100): 0%
pest or weed control at 62 g/ha ([2]; 62 g ai/ha, read-out: Plant response rating (0 to 100), Morningglory): 0%
pest or weed control at 125 g/ha ([2]; 125 g ai/ha, read-out: Plant response rating (0 to 100), Morningglory): 0%
pest or weed control at 250 g/ha ([2]; 250 g ai/ha, scale 0 to 100): 0%
pest or weed control at 62 g/ha ([3]; 62 g ai/ha): 0%
pest or weed control at 125 g/ha ([3]; 125 g ai/ha): 0%
pest or weed control at 250 g/ha ([3]; 250 g ai/ha, scale 0 to 100): 0%
pest or weed control at 31 g/ha ([4]; 31 g ai/ha): 20%
pest or weed control at 125 g/ha ([4]; 125 g ai/ha): 75%
pest or weed control at 250 g/ha ([4]; 250 g ai/ha, scale 0 to 100): 75%
pest or weed control at 62 g/ha ([5]; 62 g ai/ha): 40%
pest or weed control at 125 g/ha ([5]; 125 g ai/ha): 45%
pest or weed control at 250 g/ha ([5]; 250 g ai/ha, scale 0 to 100): 50%
Wheat plant response rating (0 = no effect, 100 = complete control) ([6]; Preemergence, 125 g ai/ha): 0
plant injury at 125 g/ha ([6]; Triticum aestivum, post-emergence, 240 h, Postemergence, 125 g ai/ha, read-out: Plant response rating (0 to 100 scale), Wheat): 0%
plant injury at 500 g/ha ([6]; Triticum aestivum, post-emergence, 240 h, Postemergence, 500 g ai/ha, read-out: Plant response rating (0 to 100 scale), Wheat): 0%
pest or weed control at 125 g/ha ([7]; Digitaria sanguinalis, post-emergence, 240 h, Postemergence, 125 g ai/ha, read-out: Plant response rating (0 to 100 scale), Crabgrass, Large): 0%
pest or weed control at 500 g/ha ([7]; Digitaria sanguinalis, post-emergence, 240 h, Postemergence, read-out: Plant response rating (0 to 100 scale), Crabgrass, Large): 0%
pest or weed control at 500 g/ha ([7]; Digitaria sanguinalis, pre-emergence, 240 h, Preemergence, read-out: Plant response rating (0 to 100 scale), Crabgrass, Large): 0%
Crabgrass, Large plant response rating (0 = no effect, 100 = complete control) ([7]; Preemergence, 125 g ai/ha): 0
pest or weed control at 125 g/ha ([8]; Amaranthus retroflexus, post-emergence, 240 h, Postemergence, 125 g ai/ha, read-out: Plant response rating (0 to 100 scale), Pigweed): 80%
pest or weed control at 500 g/ha ([8]; Amaranthus retroflexus, post-emergence, 240 h, Postemergence, read-out: Plant response rating (0 to 100 scale), Pigweed): 90%
pest or weed control at 500 g/ha ([8]; Amaranthus retroflexus, pre-emergence, 240 h, Preemergence, read-out: Plant response rating (0 to 100 scale), Pigweed): 90%
Pigweed plant response rating (0 = no effect, 100 = complete control) ([8]; Preemergence, 125 g ai/ha): 0
Corn plant response rating (0 = no effect, 100 = complete control) ([9]; Preemergence, 125 g ai/ha): 0
plant injury at 125 g/ha ([9]; Zea mays, post-emergence, 240 h, Postemergence, 125 g ai/ha, read-out: Plant response rating (0 to 100 scale), Corn): 0%
plant injury at 500 g/ha ([9]; Zea mays, post-emergence, 240 h, Postemergence, read-out: Plant response rating (0 to 100 scale), Corn): 0%
plant injury at 500 g/ha ([9]; Zea mays, pre-emergence, 240 h, Preemergence, read-out: Plant response rating (0 to 100 scale), Corn): 0%
pest or weed control at 125 g/ha ([10]; Ipomoea, post-emergence, 240 h, Postemergence, 125 g ai/ha, read-out: Plant response rating (0 to 100 scale), Morningglory): 0%
pest or weed control at 500 g/ha ([10]; Ipomoea, post-emergence, 240 h, Postemergence, read-out: Plant response rating (0 to 100 scale), Morningglory): 0%
pest or weed control at 500 g/ha ([10]; Ipomoea, pre-emergence, 240 h, Preemergence, read-out: Plant response rating (0 to 100 scale), Morningglory): 0%
Morningglory plant response rating (0 = no effect, 100 = complete control) ([10]; Preemergence, 125 g ai/ha): 0
pest or weed control at 125 g/ha ([11]; Abutilon theophrasti, post-emergence, 240 h, Postemergence, 125 g ai/ha, read-out: Plant response rating (0 to 100 scale), Velvetleaf): 80%
pest or weed control at 500 g/ha ([11]; Abutilon theophrasti, post-emergence, 240 h, Postemergence, read-out: Plant response rating (0 to 100 scale), Velvetleaf): 90%
pest or weed control at 500 g/ha ([11]; Abutilon theophrasti, pre-emergence, 240 h, Preemergence, read-out: Plant response rating (0 to 100 scale), Velvetleaf): 40%
Velvetleaf plant response rating (0 = no effect, 100 = complete control) ([11]; Preemergence, 125 g ai/ha): 0
pest or weed control at 125 g/ha ([12]; Echinochloa crus-galli, post-emergence, 240 h, Postemergence, 125 g ai/ha, read-out: Plant response rating (0 to 100 scale), Barnyardgrass): 0%
pest or weed control at 500 g/ha ([12]; Echinochloa crus-galli, post-emergence, 240 h, Postemergence, read-out: Plant response rating (0 to 100 scale), Barnyardgrass): 0%
pest or weed control at 500 g/ha ([12]; Echinochloa crus-galli, pre-emergence, 240 h, Preemergence, read-out: Plant response rating (0 to 100 scale), Barnyardgrass): 0%
Barnyardgrass plant response rating (0 = no effect, 100 = complete control) ([12]; Preemergence, 125 g ai/ha): 0
Foxtail, Giant plant response rating (0 = no effect, 100 = complete control) ([13]; Preemergence, 125 g ai/ha): 0
pest or weed control at 125 g/ha ([13]; Setaria faberi, post-emergence, 240 h, Postemergence, 125 g ai/ha, read-out: Plant response rating (0 to 100 scale), Foxtail, Giant): 0%
pest or weed control at 500 g/ha ([13]; Setaria faberi, post-emergence, 240 h, Postemergence, read-out: Plant response rating (0 to 100 scale), Foxtail, Giant): 0%
pest or weed control at 500 g/ha ([13]; Setaria faberi, pre-emergence, 240 h, Preemergence, read-out: Plant response rating (0 to 100 scale), Foxtail, Giant): 0%
